From patent US6528096B1, “Carrier mixed with additives having lubricant properties for preparing powdery pharmaceutical compositions for inhalation” (Chiesi Farmaceutical S.p.A., priority 1999, dated 2003) come the findings set out here.

Data set [1] is described as follows: Water contact angle and degree of molecular surface coating of carrier. Format: physicochemical. The conditions noted are these: single component, Table 6 footnote. On the procedure: Advantageously, the carrier particles and the lubricant particles are mixed until the degree of molecular surface coating is more than 10% as determined by water contact angle measurement. Preferably, carrier particles and lubricant particles made of magnesium stearate are mixed until the water contact angle of the ‘coated’ carrier particles is more than 36° corresponding to more than 10% degree of molecular surface coating; more preferably, the water contact angle should be more than 50° corresponding to more than 23% decree of molecular surface coating.
40.528 kg (99.75% w/w) of α-Lactose monohydrate fraction 90-150 μm and 0.102 kg (0.25% w/w) of magnesium stearate were mixed in a Turbula mixer T 100 at 16 r.p.m. for several hours. At different mixing times samples were withdrawn and tested for uniformity of distribution of magnesium stearate, particle size, water contact angle and degree of molecular surface coating calculated according to lassie et al. (Transactions of the Faraday Society 40; 546, 1944). To validate the process, three batches (40 kg) of the carrier were prepared.

Data set [2] relates to healthy volunteers. As to the kind of experiment: Acute tolerance trial in healthy volunteers. Format: in vivo, humans. The following applies: single dose 25.72 mg lactose and 0.065 mg magnesium stearate via Pulvinal inhaler. As to the method:
Furthermore, acute and long term tolerance trials were carried out to evaluate toxicity of magnesium stearate in humans.
In the former, 18 healthy volunteers, included in a double blind randomised controlled cross-over design study, received a single dose containing 25.72 mg of lactose and 0.065 mg of magnesium stearate via Pulvinal® inhaler. The introduction of 0.25% magnesium stearate in powdery pharmaceutical formulation resulted to be safe.

Data set [3] has as its system dog. As to the kind of experiment: Toxicity studies in dog. Format: in vivo.

As to `O.OC[C@H]1O[C@@H](O[C@H]2[C@H](O)[C@@H](O)[C@@H](O)O[C@@H]2CO)[C@H](O)[C@@H](O)[C@H]1O` [α-Lactose monohydrate], the water contact angle entry in data set [1] was “α-Lactose monohydrate water contact angle 12°”.
For Magnesium stearate, the water contact angle entry in data set [1] is recorded as “Magnesium stearate water contact angle 118°”. Also, the “Safety, acute tolerance” value in data set [2] is given as “safe”. Further, the “Safety of the respirable amount” value in data set [3] is “safe”.
